Data from US11771661B2, “Method of treating post-traumatic stress disorder” (ICAHN SCHOOL OF MEDICINE AT MOUNT SINAI, priority 2013, dated 2023).
Where “and” joins values, the source holds several entries; their conditions need not be identical. Equal values may be shown once.

Tested on: patients with chronic PTSD
Assay: Example 2: randomized, double-blind, midazolam-controlled crossover trial of IV ketamine, symptom ratings
Type: in vivo, human
Text: Patients with chronic PTSD were enrolled in a controlled study. […] Exclusion criteria included lifetime history of psychotic or bipolar disorder, current bulimia or anorexia nervosa, alcohol abuse or dependence in the previous three months, serious unstable medical illness or sleep apnea, active suicidal or homicidal ideation on presentation, or current use of any psychotropic medications. All patients underwent a physical examination and laboratory screening including routine hematologic, biochemical and urine toxicology testing, as well as an electrocardiogram to rule out unstable medical illness and active substance use. To receive the second IV infusion, a CAPS score of at least 50 was required prior to the second infusion. The Institutional Review Board at Mount Sinai approved the study, and informed consent was obtained from all study participants.
Study participants were free of concomitant psychotropic medications for two weeks prior to randomization and for the duration of the study. For each procedure day, patients were assigned to receive a single IV infusion of ketamine hydrochloride (0.5 mg/kg) or midazolam (0.045 mg/kg), administered over 40 minutes. Order of infusions (ketamine-midazolam or midazolam-ketamine) was randomly assigned and administrations were two weeks apart. […] Only the research pharmacy was aware of drug identity, and all study personnel, including investigators, anesthesiologists, raters, patients and data analysts were blinded to randomization order.
Following admission and an overnight fast, an indwelling catheter was placed in the antecubital vein of the non-dominant arm. Pulse, blood pressure, pulse-oximetry and ECG monitoring were instituted (see Murrough J et al. Antidepressant efficacy of ketamine in treatment-resistant major depression: a two-site, randomized controlled trial. The American Journal of Psychiatry. 2013 Oct. 1; 170(10):1134-42). Ratings were administered by a trained rater during the infusion and at 240 minutes after the start of the infusion. A different rater, blinded to the ratings during post-infusion on infusion, administered ratings at pre-infusion baseline, 24 hours (Day 1) post-infusion (before patients were discharged from the hospital), 48 hours (Day 2), 72 hours (Day 3), and 7 days (Day 7) post-infusion. Ratings were also administered at 10 and 13 days post-infusion, though data analyses focused on the first week post-infusion due to the expected duration of ketamine action. Patients were instructed to abstain from taking psychotropic medications and from using alcohol or substances of abuse for the duration of the trial. As described above, patients who scored ≥50 on the CAPS 2 weeks after the first infusion received an infusion of the second study drug.
The primary outcome was PTSD symptom severity at 24 hours post-infusion, assessed with the Impact of Event Scale—Revised (IES-R). Twenty-four hours post-infusion was selected as the primary endpoint, as acute sedating and other side effects were expected to have resolved, while potential symptom improvement was expected to persist at 24 hours. Secondary outcome measures included the Montgomery-Asberg Depression Rating Scale (MADRS), the Quick Inventory of Depressive Symptomatology, Self-Report (QIDS-SR), and Clinical Global Impression-Severity (CGI-S) and -Improvement (GCI-I) scales administered by a study clinician at 24 hours, 48 hours, 72 hours and 7 days post-infusion. The IES-R was also administered at 48 hours, 72 hours, and 7 days post-infusion. Additionally, the CAPS was administered 7 days post-infusion.
A mixed-model approach was employed to test effects of treatment, period, and carryover.

[1] = by treatment group (drug given first)
[2] = individual responder patients, after first infusion
[3] = ketamine vs midazolam, cross-over 24 hours, n = 29
[4] = ketamine vs midazolam, first infusion 24 hours, n = 41
[5] = response = 50% improvement in IES-R score at 24 hours post-infusion

## CNC1(c2ccccc2Cl)CCCCC1=O (stereo not shown) [ketamine, 2-(2-chlorophenyl)-2-(methylamino)-cyclohexanone]
7 days post-infusion, p-value=0.20
  CAPS score, mean difference ketamine-midazolam: 8.7
At 7 days, single infusion study
  decrease in CAPS score: 27 (sd=20)
[1]
  CAPS Total (Week 1), mean: 54.00
  CAPS Total (Week 2), mean: 56.21
  CGI-I (Week 1), mean: 3.22
  CGI-I (Week 2), mean: 3.15
  IES-R Total (Week 1), mean: 25.76
  IES-R Total (Week 2), mean: 25.67
[2]
  CAPS Total (Week 1): 16 and 45 and 41 and 33 and 54 and 22 and 13
  CAPS Total (Week 2): 11 (2×) and 25 and 28 and 19 and 44 and 45
  CGI-I (Week 1): 2 (5×) and 3
  CGI-I (Week 2): 2 (3×) and 3
  IES-R Total (Day 10): 4 and 3 (3×) and 15 and 25.14 and 28
  IES-R Total (Week 1): 1 and 8.38 and 10 and 2 and 18 and 17 and 3
  IES-R Total (Week 2): 6 and 1 and 14 and 0 and 26 and 28 and 2
Ketamine vs midazolam, collapsed across 24, 48, 72 hours and seven days, first period, p=0.046
  IES-R, differences of least squares means estimate: −8.32
Ketamine vs midazolam, collapsed across time, first period, p=0.050
  QIDS-SR, differences of least squares means estimate: −2.73
Ketamine vs midazolam, collapsed across time, first period, p=0.052
  MADRS, differences of least squares means estimate: −3.99
[3]
  CGI-I, mean difference: 1.2
  CGI-S, mean difference: 1.0
  IES-R Avoidance, mean difference: 4.8
  IES-R Hyperarousal, mean difference: 3.9
  IES-R Re-experiencing, mean difference: 4.0
  IES-R total, mean difference: 12.7
  MADRS, mean difference: 3.7
  QIDS, mean difference: 0.17
[4]
  CGI-I, mean difference: 0.80
  CGI-S, mean difference: 0.90
  IES-R Avoidance, mean difference: 3.3
  IES-R Hyperarousal, mean difference: 2.6
  IES-R Re-experiencing, mean difference: 2.6
  IES-R total, mean difference: 8.6
  MADRS, mean difference: 2.7
  QIDS, mean difference: 1.5
Of all 35 patients
  IES-R_response No, Percent of total: 25.71%
  IES-R_response Yes, Percent of total: 28.57%
period-1 analysis, 41 patients, ketamine vs midazolam, p=0.0496
  β of treatment assignment on IES-R score at 24 hours post-infusion: 6.5
[5]
  IES-R_response No, Frequency: 9
  IES-R_response Yes, Frequency: 10
Share of non-responders
  IES-R_response No, Row Pct: 45.00 Pct
Share of responders
  IES-R_response Yes, Row Pct: 66.67 Pct
Share of the treatment group
  IES-R_response No, Col Pct: 47.37 Pct
Share of the treatment group, 24 hours post-infusion
  IES-R_response Yes, Col Pct (responded after infusion): 52.63%
